Compound: C=CC(=O)N1CCC[C@@H](n2nc(-c3ccc(Oc4ccccc4)cc3)c3c(N)ncnc32)C1 [Ibrutinib] + O=C(CCCCCCC(=O)Nc1ccccc1)NO [Vorinostat] (partner 1 µM)
Assay: relative viability (nuclei count vs DMSO), 5 days (fraction); higher = more cells survive
Outline: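 Lung cancer cell lines, seeded in 1536-well plates, were treated the following day by pin tool with a single drug or with five library-drug doses (not always all listed) in √10 steps on top of a fixed anchor-drug dose. Cells were fixed and nuclei stained in one step after 5 days, and nuclei were counted. Relative viability is the nuclei count for treated wells divided by that for vehicle wells, reported as medians of duplicate plates.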

Row | Cell Line | relative viability (first compound 0.005 µM) | relative viability (first compound 0.01581 µM) | relative viability (first compound 0.05 µM) | relative viability (first compound 0.1581 µM) | relative viability (first compound 0.5 µM)
1 | BEN | 0.513 | 0.609 | 0.599 | 0.538 | 0.501
2 | H3255 | 0.889 | 0.725 | – | 0.764 | 0.163
3 | NCI-H1395 | 0.529 | 0.79 | 0.642 | 0.516 | 0.798
4 | NCI-H1437 | 0.865 | 0.919 | 0.908 | 0.854 | 1.02
5 | ChaGo-K-1 | 0.752 | 0.766 | 0.688 | 0.708 | 0.75
6 | NCI-H1755 | 0.739 | 0.841 | 0.659 | 0.824 | 0.751
7 | SK-LU-1 | 0.883 | 0.715 | 0.765 | 0.813 | 0.766
8 | HOP-62 | 0.529 | 0.701 | 0.557 | 0.778 | 0.71
9 | NCI-H2228 | 0.696 | 0.486 | 0.569 | 0.502 | 0.648
10 | SW 1573 | – | 0.793 | 0.694 | 1.06 | 1.06
11 | NCI-H2342 | 0.495 | 0.783 | 0.754 | 0.76 | 0.731
12 | PC-14 | 0.723 | 0.662 | 0.611 | 0.944 | 0.324
13 | EMC-BAC-2 | 0.412 | 0.525 | – | – | 0.453
14 | NCI-H520 | 0.821 | 0.665 | 0.715 | 0.757 | 0.719
15 | NCI-H2170 | 0.703 | 0.656 | 0.396 | 0.831 | 0.181
16 | A-427 | 0.883 | 0.875 | 0.887 | – | 0.867
17 | ABC-1 | 0.795 | 1.05 | – | – | 1.63
18 | LC-2-ad | 0.74 | 0.665 | 0.706 | 0.802 | 0.775

Row | Cell Line | relative viability (first compound 0.005 µM) | relative viability (first compound 0.01581 µM) | relative viability (first compound 0.05 µM) | relative viability (first compound 0.1581 µM) | relative viability (first compound 0.5 µM)
19 | NCI-H727 | 1.11 | 1.18 | 1.26 | 0.808 | 1.12
20 | COR-L23 | 0.326 | 0.51 | 0.522 | 0.477 | 0.566
21 | NCI-H522 | 0.848 | 0.764 | – | 0.808 | 0.815
22 | NCI-H3122 | 1.05 | 0.944 | 0.874 | 0.858 | 1.06
23 | NCI-H322M | 0.74 | 0.915 | 0.79 | 0.571 | 0.802
24 | HCC-44 | 1.21 | – | 1.2 | 1.2 | 1.15
25 | NCI-H441 | 0.789 | 0.694 | 1.05 | 0.823 | 0.919
26 | NCI-H2347 | 0.59 | 0.546 | 0.566 | 0.493 | 0.53
27 | HCC-827 | 0.916 | 0.943 | 1.06 | 0.875 | 0.861
28 | LOU-NH91 | 0.818 | 0.782 | 0.749 | 0.88 | 0.684
29 | NCI-H1651 | 0.492 | 0.629 | 0.524 | 0.577 | 0.574
30 | PC-3 [JPC-3] | 0.664 | 0.774 | 0.497 | 0.289 | 0.399
31 | NCI-H596 | 0.468 | 0.628 | 0.501 | 0.57 | 0.572
32 | NCI-H838 | 0.786 | 0.688 | 0.762 | 0.77 | 0.717
33 | NCI-H1648 | 0.423 | 0.441 | 0.402 | 0.31 | 0.343
34 | NCI-H358 | 0.606 | 0.598 | – | 0.809 | 0.283
35 | NCI-H647 | 0.569 | 0.472 | 0.695 | 0.645 | 0.67
36 | HCC-366 | 0.396 | 0.387 | 0.306 | 0.443 | 0.404

— the supplement of paper PMC10307832
